US20220071924A1, “TREATMENT OF OCULAR DISEASES WITH OPHTHALMIC TAPINAROF COMPOSITIONS” (Sol-Gel Technologies Ltd., priority 2019, published 2022)

Test system: Demodex folliculorum
Experiment: In vitro killing of live Demodex on epilated eyelashes, observed by light microscopy over 90 minutes
Settings: for Kill Rate: 90 min observation; for Average Time to Death: value 90 denotes no effect
Source text: In Vitro Activity of Tapinarof Based Formulations in Killing Demodex folliculorum The purpose of this study is to evaluate the effectiveness of a composition comprising Tapinarof in killing Demodex for clinical treatment. […] Following informed consent, one to four lashes with significant cylindrical dandruff were selected for epilation. Lashes were firmly grasped near the base and gently teased out with a slow circular motion to prevent cylindrical dandruff and Demodex from being left behind on the lid margin. Epilated lashes were then placed onto a glass slide and the number of live organisms under light microscopy was then recorded. Lashes with live Demodex were then included in the study. Each lash obtained was then assigned to one of 13 study reagents (Table 1). […] Observation of the study material with the Demodex took place over 90 minutes with checks under light microscopy every five minutes for cessation of Demodex activity. Organism death was recorded when all rotary movement of Demodex appendages ceased. At least five lashes with live Demodex were evaluated for each reagent. Results were recorded in Microsoft Excel and statistical analysis for significant differences in average time to death were done with two-tailed t-test using the same software (Table 1). The value 90 was used to denote no effect.

[1] = reagent at 50%, checks every 5 min
[2] = reagent at 80%, checks every 5 min
[3] = tapinarof 0.1% in 50% isopropyl alcohol
[4] = tapinarof 0.5% in 50% isopropyl alcohol
[5] = tapinarof 1% in 50% isopropyl alcohol

SMILES | Kill Rate [1] | Average Time to Death (reagent at 50%) | Kill Rate [2] | Average Time to Death (reagent at 80%) | other results
CC#N [Acetonitrile] | 88% | 31.43 min | 100% | 5.83 min | –
CC(C)O [Isopropyl alcohol] | 0% | >90 min | – | – | –
CC(C)c1c(O)cc(/C=C/c2ccccc2)cc1O [Tapinarof, 3,5-dihydroxy-4-isopropyl-trans-stilbene] | – | – | – | – | Kill Rate [3]: 8%; Average Time to Death [3]: 80 min; Kill Rate [4]: 29%; Average Time to Death [4]: 10.82 min; Kill Rate [5]: 33%; Average Time to Death [5]: 60 min; in vitro killing effect against Demodex mites (in words) (tapinarof at the 0.1% concentration (p=0.34)): a significant effect was not observed; in vitro killing effect against Demodex mites (in words) (tapinarof at the 0.5% and 1% concentrations): moderate in vitro killing effect
CCOCCOCCO [Transcutol] | 100% | 35 min | 100% | 15 min | –
CCO [Ethanol] | 100% | 33.64 min | – | – | –
CC(C)=O [Acetone] | 33% | 82.5 min | 29% | 9.7 min | –
